In data set [1] the target is Collagenase from Clostridium histolyticum. Description: Collagenase inhibition assay (FALGPA substrate). In kind it is biochemical. To be noted: for IC50: mean ± SD of three independent experiments; for Enzyme inhibition Collagenase: 100 μM. The protocol: Results from all the inhibition tests described below were reported as a percentage of the blank control. Since the compounds were dissolved in DMSO, in the assays carried out without compounds, DMSO was added to the reaction mixture as blank control. […] Data from activity experiments were recorded using an Ultrospec 2100 spectrophotometer (Biochrom Ltd., Cambridge, UK).
Collagenase from Clostridium histolyticum (1 U/mL) was prepared in 0.05 M Tricine buffer (pH 7.5), with 0.4 M NaCl and 0.01 M CaCl2, and incubated with different concentrations of test samples for 15 minutes. After adding the N-(3-[2-Furyl]-acryloyl)-Leu-Gly-Pro-Ala (FALGPA) substrate, prepared in the same buffer solution reaching a final concentration of 0.8 mM, the absorbance was registered at 340 nm. Epigallocatechin gallate was used as a positive control.

Data set [2] in a line: In vitro determination of the sun protection factor (UV absorbance, Mansur equation). The class given is physicochemical. To be noted: compounds 0.1 mg/mL, absorbance 290–320 nm. On the procedure: The sun protection factor of coumarins’ derivatives was measured by the UV absorbance method, as previously reported. The absorbances of the compounds (0.1 mg/mL) were registered in the range of 290–320 nm, with 5 nm increments, and three measurements were performed at each point. The SPF was determined by using the Mansur Equation [23]: SPF=CF × Σ290320 × EE(λ) × I(λ) × Abs(λ) where CF = correction factor (10); EE (λ) = erythemogenic effect of radiation with wavelength λ; I(λ) = solar intensity spectrum; Abs(λ) = spectrophotometric absorbance values at wavelength λ. The values of EE (λ) × I(λ) are constant as determined by Sayre et al. (Table 5).

Data set [3] deals with mushroom tyrosinase. As to the kind of experiment: Tyrosinase inhibition assay (L-DOPA substrate). The class given is biochemical. To be noted: for Enzyme inhibition Tyrosinase: 50 μM; for IC50: mean ± SD of three independent experiments. The protocol: (§1) Since the compounds were dissolved in DMSO, in the assays carried out without compounds, DMSO was added to the reaction mixture as blank control. […] Data from activity experiments were recorded using an Ultrospec 2100 spectrophotometer (Biochrom Ltd., Cambridge, UK).
The inhibition of tyrosinase was monitored by using DOPA as substrate. The reaction solution contained phosphate buffer (25 mM, pH 6.8) and mushroom tyrosinase (100 U/mL), with or without test samples.

In data set [4] the target is porcine pancreatic elastase (Sus scrofa, UniProt P00772). As to the kind of experiment: Elastase inhibition assay (SANA substrate). In kind it is biochemical. To be noted: for inhibition at 50 µM: read-out: Enzyme inhibition Elastase; for IC50: mean ± SD of three independent experiments; for inhibition at 50 µM / Enzyme inhibition Elastase: 50 μM. On the procedure:
as §1
The inhibition of elastase was determined by measuring the production of p-nitroaniline during the reaction of the enzyme with the N-succ-(Ala)3-nitroanilide (SANA) substrate. The assay was carried out in Tris-HCl buffer (0.1 M, pH 8.0) containing porcine pancreatic elastase (3.3 µg/mL). The reaction mixture was incubated in the presence or in the absence of the test compounds for 20 minutes and, once the substrate (1.6 mM) was added, the enzyme activity was monitored at 410 nm.

For orientation: IC50 means the point on the concentration scale where inhibition reaches its midpoint. Low values mean inhibition by little substance, high ones a need for much substance. In general, inhibition refers to the relative decrease from the control value, in per cent.

Several values for one entry are separate records, joined by “and”; a condition that tells them apart may be missing. Equal entries are not always repeated. Where only a bound is given, the exact number is not on record here.

Sequence of porcine pancreatic elastase (P00772 27-266): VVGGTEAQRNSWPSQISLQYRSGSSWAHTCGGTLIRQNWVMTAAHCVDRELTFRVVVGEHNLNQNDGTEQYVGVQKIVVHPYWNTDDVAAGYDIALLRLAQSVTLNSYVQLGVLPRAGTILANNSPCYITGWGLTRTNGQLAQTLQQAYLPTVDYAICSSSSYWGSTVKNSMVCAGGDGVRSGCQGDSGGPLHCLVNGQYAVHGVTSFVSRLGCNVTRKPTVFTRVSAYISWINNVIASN

Take `O=C(O[C@@H]1Cc2c(O)cc(O)cc2O[C@@H]1c1cc(O)c(O)c(O)c1)c1cc(O)c(O)c(O)c1` [Epigallocatechin gallate, reference compound]: the IC50 in data set [1] turned out to be 121 ± 6.2 µM.

In data set [2], `O=c1oc2ccc3ccccc3c2cc1-c1cccc(O)c1` [Compound 14, 3-(3′-Hydroxyphenyl)benzo[f]coumarin] had an SPF of 5.08 ± 0.46. Moreover, in data set [3], the “Enzyme inhibition Tyrosinase” value was 22.3% and the concentration for half-maximal inhibition (IC50) is more than 50 µM. Besides, in data set [4], the inhibition at 50 µM came to 35.3% and the half-maximal inhibitory concentration (IC50) was more than 50 µM. In data set [1], the “Enzyme inhibition Collagenase” value came out at 21.2% and the IC50 was more than 150 µM.

In data set [2], `O=c1oc2c(O)c(O)ccc2cc1-c1ccccc1Br` [Compound 9, 3-(2′-Bromophenyl)-7,8-dihydroxycoumarin] yielded an SPF of 4.27 ± 0.91. Besides, in data set [3], the “Enzyme inhibition Tyrosinase” value was determined as 15.7% and the IC50 is more than 50 µM. Moreover, in data set [4], the “Enzyme inhibition Elastase” value was “N.I” and the IC50 was more than 50 µM. For the same compound, in data set [1], the “Enzyme inhibition Collagenase” value stood at 14.7% and the concentration for half-maximal inhibition (IC50) is more than 150 µM.

`O=c1oc2cc(O)cc(O)c2cc1-c1ccccc1Br` [Compound 3, 3-(2′-Bromophenyl)-5,7-dihydroxycoumarin]: the SPF in data set [2] came to 5.89 ± 0.21. In data set [3], the “Enzyme inhibition Tyrosinase” value is 29.3% and the half-inhibitory concentration (IC50) was more than 50 µM. In data set [4], the “Enzyme inhibition Elastase” value was “N.I” and the IC50 was more than 50 µM. In data set [1], the “Enzyme inhibition Collagenase” value came out at 37.1% and the IC50 came to 125 ± 10.2 µM.

Turning to `O=c1oc2cc(O)c(O)cc2cc1-c1ccccc1O` [Compound 12, 6,7-Dihydroxy-3-(2′-hydroxyphenyl)coumarin], in data set [2], the SPF was 5.64 and 5.64 ± 1.43. Further, in data set [3], the “Enzyme inhibition Tyrosinase” value is 22.7% and the IC50 is more than 50 µM. Further, in data set [4], the inhibition at 50 µM was found to be 24.5% and the concentration for half-maximal inhibition (IC50) was more than 50 µM. Besides, in data set [1], the “Enzyme inhibition Collagenase” value is 39.3% and the half-maximal inhibitory concentration (IC50) stood at 134 ± 6.6 µM.

`O=c1oc2cc(O)c(O)cc2cc1-c1cccc(Br)c1` [Compound 5, 3-(3′-Bromophenyl)-6,7-dihydroxycoumarin]: in data set [3], the “Enzyme inhibition Tyrosinase” value worked out at 80.3%; the IC50 is 8.25 µM and 8.3 µM. Further, in data set [4], the inhibition at 50 µM stood at 68.4% and inhibition was half-maximal at 37.4 µM (IC50). Also, in data set [1], the “Enzyme inhibition Collagenase” value worked out at 18.2% and the IC50 is more than 150 µM.

`O=c1oc2ccc3ccccc3c2cc1-c1ccc(O)cc1` [Compound 13, 3-(4′-Hydroxyphenyl)benzo[f]coumarin] returned an SPF in data set [2] of 6.40 ± 1.53. Further, in data set [3], the “Enzyme inhibition Tyrosinase” value worked out at 23.2% and the IC50 was more than 50 µM. Also, in data set [4], the inhibition at 50 µM is 20.7% and the half-maximal inhibitory concentration (IC50) was more than 50 µM. For the same compound, in data set [1], the “Enzyme inhibition Collagenase” value came to 51.5% and half-maximal inhibition (IC50) was put at 96.8 ± 5.9 µM. For the same compound, the “times more active than the reference compound epigallocatechin gallate (collagenase)” value in data set [1] (ratio of IC50 values) is 1.25 times.

The compound `O=c1oc2ccc3ccccc3c2cc1-c1ccc(O)c(O)c1` [Compound 16, 3-(3′,4′-Dihydroxyphenyl)benzo[f]coumarin] showed an SPF in data set [2] of 5.09 ± 1.35. Also, in data set [3], the “Enzyme inhibition Tyrosinase” value is given as “N.I” and the 50% inhibitory concentration (IC50) was more than 50 µM. For the same compound, in data set [4], the inhibition at 50 µM was found to be 22.8% and the IC50 is more than 50 µM. In addition, in data set [1], the “Enzyme inhibition Collagenase” value is given as 7.9% and the IC50 is more than 150 µM.

As for `O=c1oc2cc(O)c(O)cc2cc1-c1ccccc1Br` [Compound 6, 3-(2′-Bromophenyl)-6,7-dihydroxycoumarin], in data set [2], the SPF is 8.08 and 8.08 ± 0.01. Further, in data set [3], the “Enzyme inhibition Tyrosinase” value was determined as 25.8% and the IC50 was more than 50 µM. Besides, in data set [4], the inhibition at 50 µM turned out to be 23.8% and the 50% inhibitory concentration (IC50) is more than 50 µM. Further, in data set [1], the “Enzyme inhibition Collagenase” value was 38.1% and the IC50 was 140 ± 8 µM.

Source of the values: PMC9611449, “Hydroxy-3-Phenylcoumarins as Multitarget Compounds for Skin Aging Diseases: Synthesis, Molecular Docking and Tyrosinase, Elastase, Collagenase and Hyaluronidase Inhibition, and Sun Protection Factor” (Molecules, 2022).
